Literature values as cited in patent US20250025455A1, “CONTROLLED-RELEASE NICOTINE CHEWING GUM” (Altria Client Services LLC, priority 2023, published 2025).

Conditions: free base (non-protonated) nicotine

## CN1CCCC1c1cccnc1 (stereo not shown) [Free-base nicotine, 3-(1-methyl-2-pyrrolidinyl) pyridine]
  pKa value: about 8
